The results in this text go back to patent US20090155209A1, “NOVEL MACROCYCLIC INHIBITORS OF HEPATITIS C VIRUS REPLICATION” (priority 2007, published 2009).

The target in assay [1] is T1, NS3-NS4 (Hepatitis C virus genotype 1a, UniProt P27958). Nature of the assay: NS3-NS4 activity, IC50 (Example 37, Table 8). Type of assay: biochemical.
The target in assay [2] is T1, NS3-NS4. Description: cell-based. As to conditions: EC50, NS3-NS4 activity.

T1 sequence (P27958 1027-1657): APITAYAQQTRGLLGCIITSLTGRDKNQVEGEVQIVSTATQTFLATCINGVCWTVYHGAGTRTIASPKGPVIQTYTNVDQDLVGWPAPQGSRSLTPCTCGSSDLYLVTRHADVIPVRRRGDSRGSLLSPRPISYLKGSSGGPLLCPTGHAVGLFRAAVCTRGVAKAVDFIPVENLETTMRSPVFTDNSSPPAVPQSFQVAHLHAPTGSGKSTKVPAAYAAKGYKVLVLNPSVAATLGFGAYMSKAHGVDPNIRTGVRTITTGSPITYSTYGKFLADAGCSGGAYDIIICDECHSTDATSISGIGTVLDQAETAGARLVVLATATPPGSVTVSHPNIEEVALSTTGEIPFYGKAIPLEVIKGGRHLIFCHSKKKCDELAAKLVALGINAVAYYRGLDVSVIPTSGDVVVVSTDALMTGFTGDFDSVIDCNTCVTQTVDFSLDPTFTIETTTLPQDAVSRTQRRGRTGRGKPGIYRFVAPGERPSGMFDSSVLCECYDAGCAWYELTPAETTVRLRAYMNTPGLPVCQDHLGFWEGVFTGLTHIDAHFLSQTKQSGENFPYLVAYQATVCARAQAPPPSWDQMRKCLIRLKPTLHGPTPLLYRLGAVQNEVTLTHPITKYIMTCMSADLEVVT
T1 sequence (P27958 1658-1711): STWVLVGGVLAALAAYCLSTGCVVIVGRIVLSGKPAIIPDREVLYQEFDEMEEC

Take `CN(C(=O)N[C@H]1CCCCC/C=C\[C@@H]2C[C@@]2(C(=O)NS(=O)(=O)C2(C)CC2)NC(=O)[C@@H]2C[C@@H](OC(=O)N3Cc4cccc(Cl)c4C3)CN2C1=O)C(C)(C)C` [Compound 441]: the IC50 against NS3-NS4 [1] is less than 100 nM. For the same molecule, at NS3-NS4 [2], the EC50 was less than 100 nM.
For the molecule `CCC1(OC(=O)N[C@H]2CCCCC/C=C\[C@@H]3C[C@@]3(C(=O)NS(=O)(=O)C3CC3)NC(=O)[C@@H]3C[C@@H](OC(=O)N4Cc5cccc(F)c5C4)CN3C2=O)CC1` [Compound 442], the IC50 on NS3-NS4 [1] is less than 100 nM. Also, the EC50 on NS3-NS4 [2] was less than 100 nM.
As for `CC(C)(OC(=O)N[C@H]1CCCCC/C=C\[C@@H]2C[C@@]2(C(=O)NS(=O)(=O)C2CC2)NC(=O)[C@@H]2C[C@@H](OC(=O)N3Cc4cccc(F)c4C3)CN2C1=O)C1CC1` [Compound 443], at NS3-NS4 [1], the IC50 was less than 100 nM. At NS3-NS4 [2], this molecule yielded an EC50 of less than 100 nM.
Regarding `CC(C)(C)OC(=O)N[C@H]1CCCCC/C=C\[C@@H]2C[C@@]2(C(=O)NS(=O)(=O)C2(C)CC2)NC(=O)[C@@H]2C[C@@H](OC(=O)N3Cc4cccc(F)c4C3)CN2C1=O` [Compound 444], the IC50 at NS3-NS4 [1] is less than 100 nM. At NS3-NS4 [2], this molecule registered a concentration for a half-maximal effect (EC50) of less than 100 nM.
In turn, `CC(C)(C)OC(=O)N[C@H]1CCCCC/C=C\[C@@H]2C[C@@]2(C(=O)NS(=O)(=O)C2(C)CC2)NC(=O)[C@@H]2C[C@@H](OC(=O)N3Cc4cccc(Cl)c4C3)CN2C1=O` [Compound 445] returned an IC50 against NS3-NS4 [1] of less than 100 nM. This molecule had an EC50 on NS3-NS4 [2] of less than 100 nM.
Regarding `O=C(N[C@H]1CCCCC/C=C\[C@@H]2C[C@@]2(C(=O)NS(=O)(=O)C2CC2)NC(=O)[C@@H]2C[C@@H](OC(=O)N3Cc4cccc(F)c4C3)CN2C1=O)OC1(C2CC2)CC1` [Compound 446], the IC50 on NS3-NS4 [1] was less than 100 nM. The molecule also showed an EC50 on NS3-NS4 [2] of less than 100 nM.
Molecule `O=C1N[C@]2(C(=O)NS(=O)(=O)C3CC3)C[C@H]2/C=C\CCCCC[C@H](Nc2ccc(F)cc2)C(=O)N2C[C@H](OC(=O)N3Cc4cccc(F)c4C3)C[C@@H]12` [Compound 447, (2R,6S,13aS,14aR,16aS,Z)-14a-(cyclopropylsulfonylcarbamoyl)-6-(4-fluorophenylamino)-5,16-dioxo-1,2,3,5,6,7,8,9,10,11,13a,14,14a,15,16,16a-hexadecahydrocyclopropa[e]pyrrolo[1,2-a][1,4]diazacyclopentadecin-2-yl 4-fluoroisoindoline-2-carboxylate] had an IC50 on NS3-NS4 [1] of less than 100 nM. The molecule also gave an EC50 on NS3-NS4 [2] of less than 100 nM.
`CC(C)(C)OC(=O)N[C@H]1CCCCC/C=C\[C@@H]2C[C@@]2(C(=O)NS(=O)(=O)c2ccccc2)NC(=O)[C@@H]2C[C@@H](OC(=O)N3Cc4cccc(F)c4C3)CN2C1=O` [Compound 501]: the IC50 on NS3-NS4 [1] was less than 100 nM. On NS3-NS4 [2], this molecule returned an EC50 of less than 100 nM.
`CC(C)(C)OC(=O)N[C@H]1CCCCC/C=C\[C@@H]2C[C@@]2(C(=O)NS(=O)(=O)Cc2ccccc2F)NC(=O)[C@@H]2C[C@@H](OC(=O)N3Cc4cccc(F)c4C3)CN2C1=O` [Compound 507]: the half-inhibitory concentration (IC50) at NS3-NS4 [1] is less than 100 nM. The EC50 on NS3-NS4 [2] was less than 100 nM.
At NS3-NS4 [1], `CC(C)(C)OC(=O)N[C@H]1CCCCC/C=C\[C@@H]2C[C@@]2(C(=O)NS(=O)(=O)Cc2cccc(F)c2)NC(=O)[C@@H]2C[C@@H](OC(=O)N3Cc4cccc(F)c4C3)CN2C1=O` [Compound 508] registered a 50% inhibitory concentration (IC50) of less than 100 nM. The molecule further returned an EC50 at NS3-NS4 [2] of 100 to 1000 nM.
For the molecule `CC(C)(C)OC(=O)N[C@H]1CCCCC/C=C\[C@@H]2C[C@@]2(C(=O)NS(=O)(=O)Cc2ccc(F)cc2)NC(=O)[C@@H]2C[C@@H](OC(=O)N3Cc4cccc(F)c4C3)CN2C1=O` [Compound 509], the IC50 against NS3-NS4 [1] is less than 100 nM. The molecule also showed an EC50 at NS3-NS4 [2] of 100 to 1000 nM.
The corresponding values for `CC(C)(C)OC(=O)N[C@H]1CCCCC/C=C\[C@@H]2C[C@@]2(C(=O)NS(=O)(=O)Cc2ccccc2Cl)NC(=O)[C@@H]2C[C@@H](OC(=O)N3Cc4cccc(F)c4C3)CN2C1=O` [Compound 510] are less than 100 nM and less than 100 nM.
`CC(C)(C)OC(=O)N[C@H]1CCCCC/C=C\[C@@H]2C[C@@]2(C(=O)NS(=O)(=O)Cc2cccc(Cl)c2)NC(=O)[C@@H]2C[C@@H](OC(=O)N3Cc4cccc(F)c4C3)CN2C1=O` [Compound 511]: at NS3-NS4 [1], the IC50 is less than 100 nM. Besides, the EC50 on NS3-NS4 [2] was less than 100 nM.
In turn, `CC(C)(C)OC(=O)N[C@H]1CCCCC/C=C\[C@@H]2C[C@@]2(C(=O)NS(=O)(=O)Cc2ccc(Cl)cc2)NC(=O)[C@@H]2C[C@@H](OC(=O)N3Cc4cccc(F)c4C3)CN2C1=O` [Compound 512] came in with an IC50 on NS3-NS4 [1] of less than 100 nM. Also, the EC50 at NS3-NS4 [2] was less than 100 nM.
In the case of `Cc1cccc(CS(=O)(=O)NC(=O)[C@@]23C[C@H]2/C=C\CCCCC[C@H](NC(=O)OC(C)(C)C)C(=O)N2C[C@H](OC(=O)N4Cc5cccc(F)c5C4)C[C@H]2C(=O)N3)c1` [Compound 514], the IC50 on NS3-NS4 [1] was less than 100 nM. Besides, at NS3-NS4 [2], the EC50 was in the range of 100 to 1000 nM.
On the same counts, the results for `Cc1ccc(CS(=O)(=O)NC(=O)[C@@]23C[C@H]2/C=C\CCCCC[C@H](NC(=O)OC(C)(C)C)C(=O)N2C[C@H](OC(=O)N4Cc5cccc(F)c5C4)C[C@H]2C(=O)N3)cc1` [Compound 515] are less than 100 nM and less than 100 nM.
On the same counts, the results for `CC(C)(C)OC(=O)N[C@H]1CCCCC/C=C\[C@@H]2C[C@@]2(C(=O)NS(=O)(=O)Cc2cccc(C(F)(F)F)c2)NC(=O)[C@@H]2C[C@@H](OC(=O)N3Cc4cccc(F)c4C3)CN2C1=O` [Compound 518] are less than 100 nM and 100 to 1000 nM.
For `CC(C)(C)OC(=O)N[C@H]1CCCCC/C=C\[C@@H]2C[C@@]2(C(=O)NS(=O)(=O)Cc2ccc(C(F)(F)F)cc2)NC(=O)[C@@H]2C[C@@H](OC(=O)N3Cc4cccc(F)c4C3)CN2C1=O` [Compound 519], the half-maximal inhibitory concentration (IC50) on NS3-NS4 [1] is less than 100 nM. Further, the EC50 on NS3-NS4 [2] is 100 to 1000 nM.
Molecule `CC(C)(C)OC(=O)N[C@H]1CCCCC/C=C\[C@@H]2C[C@@]2(C(=O)NS(=O)(=O)Cc2cc(F)ccc2F)NC(=O)[C@@H]2C[C@@H](OC(=O)N3Cc4cccc(F)c4C3)CN2C1=O` [Compound 520] displayed an IC50 at NS3-NS4 [1] of less than 100 nM. At NS3-NS4 [2], this molecule had a concentration for a half-maximal effect (EC50) of less than 100 nM.
Molecule `CC(C)(C)OC(=O)N[C@H]1CCCCC/C=C\[C@@H]2C[C@@]2(C(=O)NS(=O)(=O)Cc2c(F)cccc2F)NC(=O)[C@@H]2C[C@@H](OC(=O)N3Cc4cccc(F)c4C3)CN2C1=O` [Compound 521] returned an IC50 at NS3-NS4 [1] of less than 100 nM. The molecule also came in with a concentration giving a half-maximal response (EC50) on NS3-NS4 [2] of less than 100 nM.
Molecule `CC(C)(C)OC(=O)N[C@H]1CCCCC/C=C\[C@@H]2C[C@@]2(C(=O)NS(=O)(=O)Cc2ccc(F)c(F)c2)NC(=O)[C@@H]2C[C@@H](OC(=O)N3Cc4cccc(F)c4C3)CN2C1=O` [Compound 522] had an IC50 against NS3-NS4 [1] of less than 100 nM. Also, the EC50 on NS3-NS4 [2] lay within 100 to 1000 nM.
Take `CC(C)(C)OC(=O)N[C@H]1CCCCC/C=C\[C@@H]2C[C@@]2(C(=O)NS(=O)(=O)Cc2cc(F)cc(F)c2)NC(=O)[C@@H]2C[C@@H](OC(=O)N3Cc4cccc(F)c4C3)CN2C1=O` [Compound 523]: the IC50 on NS3-NS4 [1] is less than 100 nM. Also, at NS3-NS4 [2], the EC50 fell in the range of 100 to 1000 nM.
On the same counts, the results for `CC(C)(C)OC(=O)N[C@H]1CCCCC/C=C\[C@@H]2C[C@@]2(C(=O)NS(=O)(=O)Cc2ccc(Cl)cc2Cl)NC(=O)[C@@H]2C[C@@H](OC(=O)N3Cc4cccc(F)c4C3)CN2C1=O` [Compound 524] are less than 100 nM and 100 to 1000 nM.
On the same counts, the results for `CC(C)(C)OC(=O)N[C@H]1CCCCC/C=C\[C@@H]2C[C@@]2(C(=O)NS(=O)(=O)Cc2cc(Cl)ccc2Cl)NC(=O)[C@@H]2C[C@@H](OC(=O)N3Cc4cccc(F)c4C3)CN2C1=O` [Compound 525] are less than 100 nM and 100 to 1000 nM.
On the same counts, the results for `CC(C)(C)OC(=O)N[C@H]1CCCCC/C=C\[C@@H]2C[C@@]2(C(=O)NS(=O)(=O)Cc2ccc(Cl)c(Cl)c2)NC(=O)[C@@H]2C[C@@H](OC(=O)N3Cc4cccc(F)c4C3)CN2C1=O` [Compound 526] are less than 100 nM and 100 to 1000 nM.
Consider `CC(C)(C)OC(=O)N[C@H]1CCCCC/C=C\[C@@H]2C[C@@]2(C(=O)NS(=O)(=O)Cc2c(Cl)cccc2Cl)NC(=O)[C@@H]2C[C@@H](OC(=O)N3Cc4cccc(F)c4C3)CN2C1=O` [Compound 527], for which the IC50 on NS3-NS4 [1] is less than 100 nM. The EC50 on NS3-NS4 [2] was less than 100 nM.
At NS3-NS4 [1], `CC(C)(C)OC(=O)N[C@H]1CCCCC/C=C\[C@@H]2C[C@@]2(C(=O)NS(=O)(=O)Cc2cc(C(F)(F)F)cc(C(F)(F)F)c2)NC(=O)[C@@H]2C[C@@H](OC(=O)N3Cc4cccc(F)c4C3)CN2C1=O` [Compound 528] returned an IC50 of less than 100 nM. At NS3-NS4 [2], this molecule yielded an EC50 of 10000 to 50000 nM.
With `CC(C)(C)OC(=O)N[C@H]1CCCCC/C=C\[C@@H]2C[C@@]2(C(=O)NS(=O)(=O)c2cccnc2Cl)NC(=O)[C@@H]2C[C@@H](OC(=O)N3Cc4cccc(F)c4C3)CN2C1=O` [Compound 529], the IC50 on NS3-NS4 [1] was less than 100 nM. Besides, the EC50 at NS3-NS4 [2] was less than 100 nM.
Molecule `Cc1ccc(S(=O)(=O)NC(=O)[C@@]23C[C@H]2/C=C\CCCCC[C@H](NC(=O)OC(C)(C)C)C(=O)N2C[C@H](OC(=O)N4Cc5cccc(F)c5C4)C[C@H]2C(=O)N3)o1` [Compound 533] registered an IC50 on NS3-NS4 [1] of less than 100 nM. Besides, the EC50 at NS3-NS4 [2] was less than 100 nM.
`Cc1cc(S(=O)(=O)NC(=O)[C@@]23C[C@H]2/C=C\CCCCC[C@H](NC(=O)OC(C)(C)C)C(=O)N2C[C@H](OC(=O)N4Cc5cccc(F)c5C4)C[C@H]2C(=O)N3)oc1C` [Compound 534] had an IC50 at NS3-NS4 [1] of less than 100 nM. The EC50 on NS3-NS4 [2] lay within 100 to 1000 nM.
For the molecule `CC(C)(C)OC(=O)N[C@H]1CCCCC/C=C\[C@@H]2C[C@@]2(C(=O)NS(=O)(=O)c2cc(Cl)cs2)NC(=O)[C@@H]2C[C@@H](OC(=O)N3Cc4cccc(F)c4C3)CN2C1=O` [Compound 536], on NS3-NS4 [1], the IC50 was less than 100 nM. In addition, on NS3-NS4 [2], the EC50 was less than 100 nM.
`Cc1ccc(S(=O)(=O)NC(=O)[C@@]23C[C@H]2/C=C\CCCCC[C@H](NC(=O)OC(C)(C)C)C(=O)N2C[C@H](OC(=O)N4Cc5cccc(F)c5C4)C[C@H]2C(=O)N3)s1` [Compound 538]: the IC50 at NS3-NS4 [1] is less than 100 nM. The molecule also returned an EC50 at NS3-NS4 [2] of less than 100 nM.
For the molecule `Cc1csc(S(=O)(=O)NC(=O)[C@@]23C[C@H]2/C=C\CCCCC[C@H](NC(=O)OC(C)(C)C)C(=O)N2C[C@H](OC(=O)N4Cc5cccc(F)c5C4)C[C@H]2C(=O)N3)c1` [Compound 539], the IC50 at NS3-NS4 [1] was less than 100 nM. For the same molecule, the EC50 on NS3-NS4 [2] was less than 100 nM.
Molecule `COc1csc(S(=O)(=O)NC(=O)[C@@]23C[C@H]2/C=C\CCCCC[C@H](NC(=O)OC(C)(C)C)C(=O)N2C[C@H](OC(=O)N4Cc5cccc(F)c5C4)C[C@H]2C(=O)N3)c1` [Compound 541] had a 50% inhibitory concentration (IC50) on NS3-NS4 [1] of less than 100 nM. The EC50 on NS3-NS4 [2] is less than 100 nM.
